Experimental data taken from ChEMBL document CHEMBL1201862, “PubChem BioAssay data set” (2004).
“And” between values parts separate entries of the source, which are not always exact repeats. Equal entries are not always repeated.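 Compound exposure: 48 hours, 5 concentrations, 96-well plates. GI50 marks 50% less growth.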 The source made the active and inactive calls. No stated cut-off is given here; in the data, active = GI50 up to about 1.1 µM and inactive = higher.

How the values were obtained:
Test in all cases: DTP human tumour cell line panel, 48 h
A498 = test system: A498
LXFL 529 = test system: LXFL 529
BT-549 = test system: BT-549
PC-3 = test system: PC-3
RPMI-8226 = test system: RPMI-8226
LOX IMVI = test system: LOX IMVI
HOP-92 = test system: HOP-92
M19-MEL = test system: M19-MEL
HCT-116 = test system: HCT-116
MDA-MB-435 = test system: MDA-MB-435
CAKI-1 = test system: CAKI-1
NCI-H23 = test system: NCI-H23
NCI-H522 = test system: NCI-H522
HOP-18 = test system: HOP-18
OVCAR-5 = test system: OVCAR-5
HOP-62 = test system: HOP-62
SNB-78 = test system: SNB-78
EKVX = test system: EKVX
MDA-MB-231 = test system: MDA-MB-231
OVCAR-4 = test system: OVCAR-4
RXF 393 = test system: RXF 393
MDA-N = test system: MDA-N
CCRF-CEM = test system: CCRF-CEM
DMS-114 = test system: DMS-114
ACHN = test system: ACHN
HL-60 = test system: HL-60
SNB-19 = test system: SNB-19
SN12C = test system: SN12C
HCC 2998 = test system: HCC 2998
DLD-1 = test system: DLD-1
T47D = test system: T47D
HT-29 = test system: HT-29
Malme-3M = test system: Malme-3M
KM-20L2 = test system: KM-20L2
M14 = test system: M14
SK-MEL-5 = test system: SK-MEL-5
786-0 = test system: 786-0
OVCAR-3 = test system: OVCAR-3
K562 = test system: K562
NCI-H226 = test system: NCI-H226
SF-295 = test system: SF-295
U-251 = test system: U-251
SK-MEL-2 = test system: SK-MEL-2
OVCAR-8 = test system: OVCAR-8
Hs-578T = test system: Hs-578T
DU-145 = test system: DU-145
A549 = test system: A549
XF498 = test system: XF498
MCF7 = test system: MCF7
MOLT-4 = test system: MOLT-4
UO-31 = test system: UO-31
NCI-H460 = test system: NCI-H460
SR = test system: SR
KM12 = test system: KM12
NCI/ADR-RES = test system: NCI/ADR-RES
COLO 205 = test system: COLO 205
SK-OV-3 = test system: SK-OV-3
SF-539 = test system: SF-539
SK-MEL-28 = test system: SK-MEL-28
DMS-273 = test system: DMS-273
HCT-15 = test system: HCT-15
SW-620 = test system: SW-620
UACC-62 = test system: UACC-62
SNB-75 = test system: SNB-75
UACC-257 = test system: UACC-257

Cc1c(Cl)cccc1NC(=O)CC1Sc2ccccc2NC1=O (configuration not stated)
GI50 (A498): 18.3 µM (inactive) and 16.5 µM (inactive)
GI50 (LXFL 529): 45.5 µM (inactive) and 30.1 µM (inactive)
GI50 (BT-549): 27000 nM (inactive)
GI50 (PC-3): 27400 nM (inactive)
GI50 (RPMI-8226): 23.9 µM (inactive) and 32.4 µM (inactive)
GI50 (LOX IMVI): 24.8 µM (inactive) and 33.8 µM (inactive)
GI50 (HOP-92): 17.7 µM (inactive) and 33 µM (inactive)
GI50 (M19-MEL): 46.9 µM (inactive) and 32 µM (inactive)
GI50 (HCT-116): 13.9 µM (inactive) and 15.8 µM (inactive)
GI50 (MDA-MB-435): 2820 nM (inactive)
GI50 (CAKI-1): 36.3 µM (inactive) and 42.2 µM (inactive)
GI50 (NCI-H23): 35.9 µM (inactive) and 24 µM (inactive)
GI50 (NCI-H522): 27.7 µM (inactive) and 21 µM (inactive)
GI50 (HOP-18): 13.2 µM (inactive) and 15.1 µM (inactive)
GI50 (OVCAR-5): 48.9 µM (inactive) and 51.8 µM (inactive)
GI50 (HOP-62): 10.1 µM (inactive) and 18.2 µM (inactive)
GI50 (SNB-78): 30 µM (inactive) and 48.6 µM (inactive)
GI50 (EKVX): 46.9 µM (inactive) and 49.8 µM (inactive)
GI50 (MDA-MB-231): 14000 nM (inactive)
GI50 (OVCAR-4): 22 µM (inactive) and 16.5 µM (inactive)
GI50 (RXF 393): 8.39 µM (inactive) and 16 µM (inactive)
GI50 (MDA-N): 2710 nM (inactive)
GI50 (CCRF-CEM): 68.4 µM (inactive) and 46.2 µM (inactive)
GI50 (DMS-114): 27.3 µM (inactive) and 18.5 µM (inactive)
GI50 (ACHN): 23.7 µM (inactive) and 23.5 µM (inactive)
GI50 (HL-60): 12.3 µM (inactive) and 8.43 µM (inactive)
GI50 (SNB-19): 19.4 µM (inactive) and 20.1 µM (inactive)
GI50 (SN12C): 25.1 µM (inactive) and 47.2 µM (inactive)
GI50 (HCC 2998): 14.3 µM (inactive) and 12 µM (inactive)
GI50 (DLD-1): 35 µM (inactive) and 24.1 µM (inactive)
GI50 (T47D): 25500 nM (inactive)
GI50 (HT-29): 13900 nM (inactive)
GI50 (Malme-3M): 19.5 µM (inactive) and 18.5 µM (inactive)
GI50 (KM-20L2): 24.6 µM (inactive) and 22.4 µM (inactive)
GI50 (M14): 32.3 µM (inactive) and 22.6 µM (inactive)
GI50 (SK-MEL-5): 14.2 µM (inactive) and 10.5 µM (inactive)
GI50 (786-0): 24 µM (inactive) and 17.4 µM (inactive)
GI50 (OVCAR-3): 15.3 µM (inactive) and 17.9 µM (inactive)
GI50 (K562): 6.59 µM (inactive) and 6.53 µM (inactive)
GI50 (NCI-H226): 19.1 µM (inactive) and 17.9 µM (inactive)
GI50 (SF-295): 37.5 µM (inactive) and 21.9 µM (inactive)
GI50 (U-251): 14.7 µM (inactive) and 17.3 µM (inactive)
GI50 (SK-MEL-2): 16.4 µM (inactive) and 17.9 µM (inactive)
GI50 (OVCAR-8): 16.4 µM (inactive) and 20.8 µM (inactive)
GI50 (Hs-578T): 2990 nM (inactive)
GI50 (DU-145): 53700 nM (inactive)
GI50 (A549): 19.8 µM (inactive) and 29.2 µM (inactive)
GI50 (XF498): 22.9 µM (inactive) and 22.8 µM (inactive)
GI50 (MCF7): 11 µM (inactive)
GI50 (MOLT-4): 24.4 µM (inactive) and 26.5 µM (inactive)
GI50 (UO-31): 19.4 µM (inactive) and 19.6 µM (inactive)
GI50 (NCI-H460): 22.4 µM (inactive) and 23.2 µM (inactive)
GI50 (SR): 6120 nM (inactive)
GI50 (KM12): 11 µM (inactive) and 16.6 µM (inactive)
GI50 (NCI/ADR-RES): 17 µM (inactive)
GI50 (COLO 205): 46.3 µM (inactive) and 31.4 µM (inactive)
GI50 (SK-OV-3): 16.4 µM (inactive) and 19.3 µM (inactive)
GI50 (SF-539): 17.9 µM (inactive) and 20.9 µM (inactive)

COC(C(=O)C(O)C(C)O)C1Cc2cc3cc(OC4CC(OC(C)=O)C(OC5CC(O)C(OC)C(C)O5)C(C)O4)cc(O)c3c(O)c2C(=O)C1OC1CC(OC2CC(OC3CC(C)(O)C(OC(=O)C(C)C)C(C)O3)C(O)C(C)O2)C(O)C(C)O1 (configuration not stated)
GI50 (A498): 14.5 nM (active) and 8.43 nM (active)
GI50 (SK-MEL-28): < 10 nM (active) and 18.5 nM (active)
GI50 (BT-549): 20.2 nM (active)
GI50 (PC-3): 201 nM (active)
GI50 (DMS-273): < 10 nM (active) and 16.9 nM (active)
GI50 (HCT-116): < 18.4 nM (active) and < 10 nM (active)
GI50 (MDA-MB-435): 85.5 nM (active)
GI50 (NCI-H23): < 17.8 nM (active) and 15.4 nM (active)
GI50 (NCI-H522): 15.6 nM (active) and < 10 nM (active)
GI50 (HCT-15): 800 nM and 935 nM
GI50 (HOP-18): < 10 nM (active)
GI50 (SNB-78): 29.1 nM (active) and 24.1 nM (active)
GI50 (EKVX): 10.2 nM (active) and < 10 nM (active)
GI50 (MDA-MB-231): 62.7 nM (active)
GI50 (MDA-N): 112 nM (active)
GI50 (SW-620): 15.6 nM (active) and 16.2 nM (active)
GI50 (UACC-62): < 10 nM (active) and 16.2 nM (active)
GI50 (DLD-1): 44.3 nM (active) and 50.7 nM (active)
GI50 (T47D): 124 nM (active)
GI50 (Malme-3M): 23.8 nM (active) and < 13.5 nM (active)
GI50 (SK-MEL-5): 20.1 nM (active) and < 17.8 nM (active)
GI50 (SK-MEL-2): 8.91 nM (active) and < 10 nM (active)
GI50 (Hs-578T): 36.6 nM (active)
GI50 (DU-145): 101 nM (active)
GI50 (A549): 10.9 nM (active) and 9.48 nM (active)
GI50 (XF498): < 10 nM (active) and 8.95 nM (active)
GI50 (MCF7): < 10 nM (active) and 9.16 nM (active)
GI50 (UO-31): 938 nM (active) and 1.19 µM (inactive)
GI50 (NCI-H460): 9.82 nM (active) and < 10 nM (active)
GI50 (NCI/ADR-RES): > 60.8 µM (inactive) and 51.9 µM (inactive)
GI50 (SK-OV-3): 210 nM (active) and 166 nM (active)
GI50 (SF-539): 16.1 nM (active) and < 10 nM (active)
GI50 (SNB-75): < 10 nM (active) and 19.1 nM (active)
GI50 (UACC-257): 13.9 nM (active) and 26.3 nM (active)
